# In US10947213B1 (Merck Patent GmbH, priority 2015, dated 2021):
# Counter-ions that a name gives are not always drawn.
# Target: T1, TLR7/NFKb HEK cells (Homo sapiens, UniProt Q9NYK1)
# T1 construct: expressed in transfected cells; host or cells: HEK cells (TLR7/NFKb reporter line)
# T1 sequence (Q9NYK1 27-1049): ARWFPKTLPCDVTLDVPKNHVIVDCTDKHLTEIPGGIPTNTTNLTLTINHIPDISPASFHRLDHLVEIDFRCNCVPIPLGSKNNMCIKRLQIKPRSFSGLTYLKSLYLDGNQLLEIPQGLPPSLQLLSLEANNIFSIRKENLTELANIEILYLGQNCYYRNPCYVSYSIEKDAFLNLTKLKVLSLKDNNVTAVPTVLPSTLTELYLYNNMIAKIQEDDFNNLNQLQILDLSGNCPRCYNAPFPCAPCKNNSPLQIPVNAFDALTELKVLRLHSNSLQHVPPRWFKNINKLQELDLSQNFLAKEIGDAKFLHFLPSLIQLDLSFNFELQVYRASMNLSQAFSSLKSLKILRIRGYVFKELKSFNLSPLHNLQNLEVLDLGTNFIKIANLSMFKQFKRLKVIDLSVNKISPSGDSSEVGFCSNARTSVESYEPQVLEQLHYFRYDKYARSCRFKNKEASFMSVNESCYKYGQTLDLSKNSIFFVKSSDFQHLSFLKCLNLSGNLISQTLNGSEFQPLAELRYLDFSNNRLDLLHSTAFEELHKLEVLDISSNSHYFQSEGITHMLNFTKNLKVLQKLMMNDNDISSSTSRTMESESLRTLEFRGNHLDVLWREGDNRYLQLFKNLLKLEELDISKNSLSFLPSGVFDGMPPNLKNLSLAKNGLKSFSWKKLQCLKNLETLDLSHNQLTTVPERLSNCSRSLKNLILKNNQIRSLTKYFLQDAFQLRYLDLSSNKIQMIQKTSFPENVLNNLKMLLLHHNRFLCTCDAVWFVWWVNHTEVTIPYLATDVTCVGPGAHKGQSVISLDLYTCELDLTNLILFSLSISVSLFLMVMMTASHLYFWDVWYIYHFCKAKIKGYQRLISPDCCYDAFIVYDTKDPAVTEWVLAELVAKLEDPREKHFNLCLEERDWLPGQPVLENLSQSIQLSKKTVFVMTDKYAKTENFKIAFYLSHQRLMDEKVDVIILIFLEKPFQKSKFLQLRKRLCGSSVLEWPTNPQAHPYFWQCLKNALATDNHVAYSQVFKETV
# Test: HEK Cell Assay (TLR7/NFKb reporter, Steady-Glo luciferase readout)
# Format: cell-based
# Details: 30 min compound preincubation, then R*48 agonist for 5 hours, read-out: Potency
# Experimental: Example 142: HEK Cell Assay
# Into 384 CulturePlates (Corning 3707) was placed 5000 c/w of TLR7/NFKb HEK cells in 30 uL DMEM without Phenil red (gibco #31053) and 10% i.a. FCS and 2 mM L-ZGLutamin. The cells were incubated for 24 h at 37° C., 10% carbon dioxide and 90% relative humidity. 3 uL of controls, standards, and compounds were dispensed into wells, incubated for 30 min then 3 uL of R*48 agonist in 20 mM Hepes was added. After incubation for 5 hours, they were allowed to stand at room temperature for 15 min. To this was added 10 uL of Steady-Glo substrate reagent and shake assay plate for 5 min at 1500 rpm. The assay plate was allowed to sit for 30 min at room temperature and then the plate was read on EnVision.
row,IC50 [µM],SMILES
1,< 1,"N#Cc1ccc(N2CC(NC(=O)C(N)C3CC3)CC(C(F)(F)F)C2)c2cccnc12 (mixture of isomers) [Compound 486, rac-(R)-2-Amino-N-[(3R,5S)-1-(8-cyano-quinolin-5-yl)-5-trifluoromethyl-piperidin-3-yl]-2-cyclopropyl-acetamide]"
2,< 1,"CN1CCN(CC(=O)N[C@H]2C[C@@H](C3CC3)CN(c3ccc(C(F)(F)F)c4ncccc34)C2)CC1 (racemic) [Compound 338, cis-N-[5-cyclopropyl-1-[8-(trifluoromethyl)quinolin-5-yl]piperidin-3-yl]-2-(4-methylpiperazin-1-yl)acetamide]"
3,> 10,"O=C(CN1CCOCC1)N[C@H]1C[C@@H](C2CC2)CN(c2ccc(F)c3ncccc23)C1 (racemic) [Compound 367, cis-N-[5-cyclopropyl-1-(8-fluoroquinolin-5-yl)piperidin-3-yl]-2-(morpholin-4-yl)acetamide]"
4,1 to 10,CC(C)(O)CC(=O)N[C@@H]1C[C@H](C(F)(F)F)CN(c2ccc(C#N)c3ncccc23)C1 (racemic) [Compound 481]
5,< 1,"CN1CC(CC(=O)NC2CC(C(F)(F)F)CN(c3ccc(C#N)c4ncccc34)C2)C1 (racemic) [Compound 490, cis-N-[(1-(8-Cyano-quinolin-5-yl)-5-trifluoromethyl-piperidin-3-yl]-2-(1-methyl-azetidin-3-yl)-acetamide]"
6,< 1,"CN1CCC(CC(=O)NC2CN(c3ccc(C#N)c4nccnc34)CC(F)(F)C2)CC1 (racemic) [Compound 504, N-[1-(8-Cyano-quinoxalin-5-yl)-5,5-difluoro-piperidin-3-yl]-2-(1-methyl-piperidin-4-yl)-acetamide]"
7,< 1,"CC(C)(C)CC(=O)N[C@H]1C[C@@H](C(F)(F)F)CN(c2ccc(C#N)c3nccnc23)C1 (relative stereo) [Compound 85, cis-N-[1-(8-cyanoquinoxalin-5-yl)-5-(trifluoromethyl)piperidin-3-yl]-3,3-dimethylbutanamide]"
8,1 to 10,"N#Cc1ccc(N2C[C@H](NCCC(F)(F)F)C[C@H](C(F)(F)F)C2)c2nccnc12 (relative stereo) [Compound 95, cis-8-[3-(trifluoromethyl)-5-[(3,3,3-trifluoropropyl)amino]piperidin-1-yl]quinoxaline-5-carbonitrile]"
9,> 10,"FC(F)(F)CCN[C@H]1C[C@@H](C(F)(F)F)CN(c2ccnc3nccnc23)C1 (relative stereo) [Compound 96, cis-1-[pyrido[2,3-b]pyrazin-8-yl]-5-(trifluoromethyl)-N-(3,3,3-trifluoropropyl)piperidin-3-amine hydrochloride]"
10,1 to 10,"CC(C)(C)CC(=O)N[C@H]1C[C@@H](C2CC2)CN(c2ccc(C#N)c3nccnc23)C1 (relative stereo) [Compound 175, cis-N-[1-(8-cyanoquinoxalin-5-yl)-5-cyclopropylpiperidin-3-yl]-3,3-dimethylbutanamide]"
11,1 to 10,"COCCN[C@@H]1C[C@H](C2CC2)CN(c2ccc(C#N)c3nccnc23)C1 (relative stereo) [Compound 176, cis-8-[3-cyclopropyl-5-[(2-methoxyethyl)amino]piperidin-1-yl]quinoxaline-5-carbonitrile]"
12,1 to 10,"CN(C)CC(=O)N[C@H]1C[C@@H](C2CC2)CN(c2ccc(C#N)c3nccnc23)C1 (relative stereo) [Compound 179, cis-N-[1-(8-cyanoquinoxalin-5-yl)-5-cyclopropylpiperidin-3-yl]-2-(dimethylamino)acetamide]"
13,1 to 10,"COCCN[C@H]1C[C@@H](C(F)(F)F)CN(c2ccc(C#N)c3nccnc23)C1 (relative stereo) [Compound 221, cis-8-[3-[(2-methoxyethyl)amino]-5-(trifluoromethyl)piperidin-1-yl]quinoxaline-5-carbonitrile]"
14,< 1,"CN(C)CC(=O)N[C@H]1C[C@@H](C(F)(F)F)CN(c2ccc(C#N)c3nccnc23)C1 (relative stereo) [Compound 222, cis-N-[1-(8-cyanoquinoxalin-5-yl)-5-(trifluoromethyl)piperidin-3-yl]-2-(dimethylamino)acetamide]"
15,1 to 10,"N#Cc1ccc(N2C[C@@H](NC(=O)CO)C[C@@H](C(F)(F)F)C2)c2nccnc12 (relative stereo) [Compound 223, cis-N-[1-(8-cyanoquinoxalin-5-yl)-5-(trifluoromethyl)piperidin-3-yl]-2-hydroxyacetamide]"
16,1 to 10,"N#Cc1ccc(N2C[C@@H](NC(=O)CN3CCOCC3)C[C@@H](C(F)(F)F)C2)c2nccnc12 (relative stereo) [Compound 228, cis-N-[1-(8-cyanoquinoxalin-5-yl)-5-(trifluoromethyl)piperidin-3-yl]-2-(morpholin-4-yl)acetamide]"

# Further lines, the compound ahead of its results:
row,SMILES,IC50 [µM]
1,N[C@@H]1C[C@H](C(F)(F)F)CN(c2ccnc3nccnc23)C1 (racemic) [Compound 84],1 to 10
2,"CN(C(=O)CN1CCOCC1)[C@H]1C[C@@H](C2CC2)CN(c2ccc(F)c3ncccc23)C1 (racemic) [Compound 368, cis-N-[5-cyclopropyl-1-(8-fluoroquinolin-5-yl)piperidin-3-yl]-N-methyl-2-(morpholin-4-yl)acetamide]",> 10
3,"N#Cc1ccc(N2C[C@@H](NC(=O)CN3CCOCC3)C[C@@H](C(F)(F)F)C2)c2cccnc12 (racemic) [Compound 424, cis-N-[1-(8-Cyano-quinolin-5-yl)-5-trifluoromethyl-piperidin-3-yl]-2-morpholin-4-yl-acetamide]",1 to 10
4,"CN(C)CC(=O)N[C@H]1C[C@@H](C(F)(F)F)CN(c2ccc(C#N)c3ncccc23)C1 (racemic) [Compound 426, cis-N-[1-(8-Cyano-quinolin-5-yl)-5-trifluoromethyl-piperidin-3-yl]-2-dimethylamino-acetamide]",< 1
5,"C[C@@H]1C[C@H](O)CN(c2ccc(C(F)(F)F)c3ncccc23)C1 (racemic) [Compound 461, cis-5-Methyl-1-(8-trifluoromethyl-quinolin-5-yl)-piperidin-3-ol]",< 1
6,"N#Cc1ccc(N2C[C@@H](NC(=O)CC3(N)CCCCC3)C[C@@H](C(F)(F)F)C2)c2cccnc12 (racemic) [Compound 479, hydrochloride]",< 1
7,N#Cc1ccc(N2C[C@@H](NC(=O)CCC(=O)N3CCC3)C[C@@H](C(F)(F)F)C2)c2cccnc12 (racemic) [Compound 482],1 to 10
8,N#Cc1ccc(N2CC(NC(=O)CC3(O)CCCCC3)CC(C(F)(F)F)C2)c2cccnc12 (racemic) [Compound 491],< 1
9,"CNC(=O)CCC(=O)NC1CC(C(F)(F)F)CN(c2ccc(C#N)c3ncccc23)C1 (racemic) [Compound 492, cis-(N-1-(8-Cyano-quinolin-5-yl)-5-trifluoromethyl-piperidin-3-yl]-N′-methyl-succinamide)]",1 to 10
10,"N#Cc1ccc(N2CC(NC(=O)CC3(N)CCOCC3)CC(C(F)(F)F)C2)c2cccnc12 (racemic) [Compound 493, 2-(4-Amino-tetrahydro-pyran-4-yl)-N-[1-(8-cyano-quinolin-5-yl)-5-trifluoromethyl-piperidin-3-yl]-acetamide hydrochloride]",< 1
11,"CN1CCN(C(=O)CCC(=O)N[C@H]2C[C@@H](C(F)(F)F)CN(c3ccc(C#N)c4ncccc34)C2)CC1 (racemic) [Compound 496, cis-N—[-1-(8-Cyano-quinolin-5-yl)-5-trifluoromethyl-piperidin-3-yl]-4-(4-methyl-piperazin-1-yl)-4-oxo-butyramide]",< 1
12,"N#Cc1ccc(N2C[C@@H](N)C[C@@H](C(F)(F)F)C2)c2cccnc12 (relative stereo) [Compound 71, cis-5-(3-Amino-5-trifluoromethyl-piperidin-1-yl)-quinoline-8-carbonitrile]",< 1
13,"CC(C)(C)CC(=O)N[C@H]1C[C@@H](C(F)(F)F)CN(c2ccnc3nccnc23)C1 (relative stereo) [Compound 86, cis-3,3-dimethyl-N-[1-[pyrido[2,3-b]pyrazin-8-yl]-5-(trifluoromethyl)piperidin-3-yl]butanamide]",> 10
